# Read-outs that look alike come from different tables or passages of the source.
# What was measured:
# Type in all cases: cell-based
# [1] = tested on: HUVEC cells; assay: Inhibition of HUVEC proliferation (WST-1, Example 2); conditions: Homo sapiens
# [2] = tested on: EKVX; assay: NCI in vitro SRB assay, Non-Small Cell Lung Cancer; conditions: for GI50: Homo sapiens
# Protocol: (§1) An in vitro assay which tested the ability of N,N,-diethyl-8,8-dipropyl-2-azaspiro[4,5]decane-2-propanamine dimaleate (Compound 1) to inhibit the growth of known cancer cell lines was performed by the National Cancer Institute in accordance with standard procedures. See: Lin, Z. X., Hoult, J. R., and Raman, A. Sulphorhodamine B assay for measuring proliferation of a pigmented melanocyte cell line and its application to the evaluation of crude drugs used in the treatment of vitiligo. J Ethnopharmacol. 66: 141-150, 1999. Briefly, selected tumor cell lines were cultured in media containing five different concentrations of Compound 1. After 48 hours of continuous exposure, a sulforhodamine B (SRB) assay was used to estimate cell viability or growth via optical measurements.
# (§2) From the measurements, the following values were determined: 1) the concentration of Compound 1 at which a tumor cell growth inhibition of 50% (relative to control) occurs (GI50), 2) the concentration of Compound 1 at which no growth occurs (total growth inhibition, TGI), and 3) the concentration of Compound 1 at which the […] (LC 50). […] FIG. 6 illustrates, graphically, tumor cell growth as a function of Compound 1 concentration of the scanned tumor cell lines.
# [3] = tested on: HOP-92; assay: NCI in vitro SRB assay, Non-Small Cell Lung Cancer; conditions: for CC50 / GI50: Homo sapiens
# Protocol: as §1, §2
# [4] = tested on: NCI-H322M; assay: NCI in vitro SRB assay, Non-Small Cell Lung Cancer; conditions: for GI50 / CC50: Homo sapiens
# Protocol: as §1, §2
# [5] = tested on: LOX IMVI; assay: NCI in vitro SRB assay, Melanoma; conditions: for GI50 / CC50: Homo sapiens
# Protocol: as §1, §2
# [6] = tested on: M14; assay: NCI in vitro SRB assay, Melanoma; conditions: for CC50 / GI50: Homo sapiens
# Protocol: as §1, §2
# [7] = tested on: MALME-3M; assay: NCI in vitro SRB assay, Melanoma; conditions: for CC50 / GI50: Homo sapiens, Malme-3M
# Protocol: as §1, §2
# [8] = tested on: SK-MEL-2; assay: NCI in vitro SRB assay, Melanoma; conditions: for CC50 / GI50: Homo sapiens
# Protocol: as §1, §2
# [9] = tested on: UACC-62; assay: NCI in vitro SRB assay, Melanoma; conditions: for CC50 / GI50: Homo sapiens
# Protocol: as §1, §2
# [10] = read-out: Log10 GI50 (converted)
# [11] = HOP-92, Log10 conc -4.0 Moles/L
# [12] = HOP-92, Log10 conc -5.0 Moles/L
# [13] = HOP-92, Log10 conc -6.0 Moles/L
# [14] = HOP-92, Log10 conc -7.0 Moles/L
# [15] = HOP-92, Log10 conc -8.0 Moles/L
# [16] = read-out: Log10 LC50 (converted)
# [17] = MALME-3M, Log10 conc -4.0 Moles/L
# [18] = MALME-3M, Log10 conc -5.0 Moles/L
# [19] = MALME-3M, Log10 conc -6.0 Moles/L
# [20] = MALME-3M, Log10 conc -7.0 Moles/L
# [21] = MALME-3M, Log10 conc -8.0 Moles/L
# [22] = SK-MEL-2, Log10 conc -4.0 Moles/L
# [23] = SK-MEL-2, Log10 conc -5.0 Moles/L
# [24] = SK-MEL-2, Log10 conc -6.0 Moles/L
# [25] = SK-MEL-2, Log10 conc -7.0 Moles/L
# [26] = SK-MEL-2, Log10 conc -8.0 Moles/L
# [27] = UACC-62, Log10 conc -4.0 Moles/L
# [28] = UACC-62, Log10 conc -5.0 Moles/L
# [29] = UACC-62, Log10 conc -6.0 Moles/L
# [30] = UACC-62, Log10 conc -7.0 Moles/L
# [31] = UACC-62, Log10 conc -8.0 Moles/L
smiles,measurement,setting,value
"CCCC1(CCC)CCC2(CCN(CCCN(CC)CC)C2)CC1.O=C(O)/C=C\C(=O)O.O=C(O)/C=C\C(=O)O [Compound 1, N,N,-diethyl-8,8-dipropyl-2-azaspiro[4,5]decane-2-propanamine dimaleate]",IC50,[1],1250 to 2500 nM
same,Log10 TGI,[2],−5.39
same,TGI,[2],4090 nM
same,GI50,[2]; read-out: GI50,2110 nM
same,GI50,[2]; [10],2090 nM
same,Mean Optical Densities,[2]; Log10 conc -4.0 Moles/L,0.073
same,Percent Growth,[2]; Log10 conc -4.0 Moles/L,−88%
same,Mean Optical Densities,[2]; Log10 conc -5.0 Moles/L,0.202
same,Percent Growth,[2]; Log10 conc -5.0 Moles/L,−67%
same,Mean Optical Densities,[2]; Log10 conc -6.0 Moles/L,1.321
same,Percent Growth,[2]; Log10 conc -6.0 Moles/L,106%
same,Mean Optical Densities,[2]; Log10 conc -7.0 Moles/L,1.336
same,Percent Growth,[2]; Log10 conc -7.0 Moles/L,108%
same,Mean Optical Densities,[2]; Log10 conc -8.0 Moles/L,1.280
same,Percent Growth,[2]; Log10 conc -8.0 Moles/L,100%
same,Log10 TGI,[3]; HOP-92,−5.41
same,TGI,[3]; HOP-92,3920 nM
same,Mean Optical Densities,[3]; [11],0.106
same,Percent Growth,[3]; [11],−87%
same,Mean Optical Densities,[3]; [12],0.542
same,Percent Growth,[3]; [12],−33%
same,Mean Optical Densities,[3]; [13],1.227
same,Percent Growth,[3]; [13],49%
same,Mean Optical Densities,[3]; [14],1.412
same,Percent Growth,[3]; [14],71%
same,Mean Optical Densities,[3]; [15],1.529
same,Percent Growth,[3]; [15],85%
same,CC50,"[3]; HOP-92, read-out: LC50",20300 nM
same,CC50,"[3]; HOP-92, read-out: Log10 LC50 (converted)",20400 nM
same,GI50,"[3]; HOP-92, read-out: GI50",897 nM
same,GI50,"[3]; HOP-92, read-out: Log10 GI50 (converted)",891 nM
same,Log10 TGI,[4],−5.64
same,TGI,[4],2290 nM
same,GI50,[4]; read-out: GI50,890 nM
same,CC50,[4]; read-out: LC50,5410 nM
same,GI50,[4]; [10],891 nM
same,CC50,[4]; [16],5370 nM
same,Mean Optical Densities,[4]; Log10 conc -4.0 Moles/L,0.115
same,Percent Growth,[4]; Log10 conc -4.0 Moles/L,−84%
same,Mean Optical Densities,[4]; Log10 conc -5.0 Moles/L,0.100
same,Percent Growth,[4]; Log10 conc -5.0 Moles/L,−86%
same,Mean Optical Densities,[4]; Log10 conc -6.0 Moles/L,0.855
same,Percent Growth,[4]; Log10 conc -6.0 Moles/L,48%
same,Mean Optical Densities,[4]; Log10 conc -7.0 Moles/L,0.979
same,Percent Growth,[4]; Log10 conc -7.0 Moles/L,86%
same,Mean Optical Densities,[4]; Log10 conc -8.0 Moles/L,0.991
same,Percent Growth,[4]; Log10 conc -8.0 Moles/L,89%
same,Log10 TGI,[5],−5.74
same,TGI,[5],1840 nM
same,GI50,[5]; read-out: GI50,515 nM
same,CC50,[5]; read-out: LC50,4290 nM
same,GI50,[5]; [10],513 nM
same,CC50,[5]; [16],4270 nM
same,Mean Optical Densities,[5]; Log10 conc -4.0 Moles/L,−0.030
same,Percent Growth,[5]; Log10 conc -4.0 Moles/L,−100%
same,Mean Optical Densities,[5]; Log10 conc -5.0 Moles/L,−0.044
same,Percent Growth,[5]; Log10 conc -5.0 Moles/L,−100%
same,Mean Optical Densities,[5]; Log10 conc -6.0 Moles/L,0.595
same,Percent Growth,[5]; Log10 conc -6.0 Moles/L,36%
same,Mean Optical Densities,[5]; Log10 conc -7.0 Moles/L,1.037
same,Percent Growth,[5]; Log10 conc -7.0 Moles/L,85%
same,Mean Optical Densities,[5]; Log10 conc -8.0 Moles/L,1.072
same,Percent Growth,[5]; Log10 conc -8.0 Moles/L,89%
same,CC50,"[6]; M14, read-out: LC50",1800 nM
same,CC50,"[6]; M14, read-out: Log10 LC50 (converted)",1820 nM
same,GI50,"[6]; M14, read-out: GI50",203 nM
same,GI50,"[6]; M14, read-out: Log10 GI50 (converted)",204 nM
same,Log10 TGI,[6]; M14,−6.32
same,TGI,[6]; M14,477 nM
same,Mean Optical Densities,"[6]; M14, Log10 conc -4.0 Moles/L",0.109
same,Percent Growth,"[6]; M14, Log10 conc -4.0 Moles/L",−61%
same,Mean Optical Densities,"[6]; M14, Log10 conc -5.0 Moles/L",0.086
same,Percent Growth,"[6]; M14, Log10 conc -5.0 Moles/L",−69%
same,Mean Optical Densities,"[6]; M14, Log10 conc -6.0 Moles/L",0.158
same,Percent Growth,"[6]; M14, Log10 conc -6.0 Moles/L",−43%
same,Mean Optical Densities,"[6]; M14, Log10 conc -7.0 Moles/L",0.838
same,Percent Growth,"[6]; M14, Log10 conc -7.0 Moles/L",92%
same,Mean Optical Densities,"[6]; M14, Log10 conc -8.0 Moles/L",0.884
same,Percent Growth,"[6]; M14, Log10 conc -8.0 Moles/L",99%
same,CC50,[7]; read-out: LC50,5900 nM
same,CC50,[7]; [16],5890 nM
same,GI50,[7]; read-out: GI50,1600 nM
same,GI50,[7]; [10],1580 nM
same,Log10 TGI,[7]; MALME-3M,−5.51
same,TGI,[7]; MALME-3M,3070 nM
same,Mean Optical Densities,[7]; [17],0.084
same,Percent Growth,[7]; [17],−91%
same,Mean Optical Densities,[7]; [18],0.089
same,Percent Growth,[7]; [18],−91%
same,Mean Optical Densities,[7]; [19],1.108
same,Percent Growth,[7]; [19],86%
same,Mean Optical Densities,[7]; [20],1.047
same,Percent Growth,[7]; [20],55%
same,Mean Optical Densities,[7]; [21],1.103
same,Percent Growth,[7]; [21],84%
same,CC50,"[8]; SK-MEL-2, read-out: LC50",> 100000 nM
same,CC50,"[8]; SK-MEL-2, read-out: Log10 LC50 (converted)",> 100000 nM
same,GI50,"[8]; SK-MEL-2, read-out: GI50",3450 nM
same,GI50,"[8]; SK-MEL-2, read-out: Log10 GI50 (converted)",3470 nM
same,Log10 TGI,[8]; SK-MEL-2,>−4.00
same,TGI,[8]; SK-MEL-2,>100000 nM
same,Mean Optical Densities,[8]; [22],0.168
same,Percent Growth,[8]; [22],7%
same,Mean Optical Densities,[8]; [23],0.167
same,Percent Growth,[8]; [23],7%
same,Mean Optical Densities,[8]; [24],1.199
same,Percent Growth,[8]; [24],100%
same,Mean Optical Densities,[8]; [25],1.191
same,Percent Growth,[8]; [25],99%
same,Mean Optical Densities,[8]; [26],1.191
same,Percent Growth,[8]; [26],99%
same,CC50,"[9]; UACC-62, read-out: LC50",2530 nM
same,CC50,"[9]; UACC-62, read-out: Log10 LC50 (converted)",2510 nM
same,GI50,"[9]; UACC-62, read-out: GI50",218 nM
same,GI50,"[9]; UACC-62, read-out: Log10 GI50 (converted)",219 nM
same,Log10 TGI,[9]; UACC-62,−6.19
same,TGI,[9]; UACC-62,642 nM
same,Mean Optical Densities,[9]; [27],0.060
same,Percent Growth,[9]; [27],−89%
same,Mean Optical Densities,[9]; [28],0.034
same,Percent Growth,[9]; [28],−94%
same,Mean Optical Densities,[9]; [29],0.421
same,Percent Growth,[9]; [29],−21%
same,Mean Optical Densities,[9]; [30],1.379
same,Percent Growth,[9]; [30],86%
same,Mean Optical Densities,[9]; [31],1.375
same,Percent Growth,[9]; [31],85%

# Source: patent US20050250801A1, “Method of treating cancer with azaspirane compositions” (priority 2003, published 2005)
